# Laboratory results: US20240336608A1, “IL4I1 INHIBITORS AND METHODS OF USE” (Merck Sharp & Dohme LLC, priority 2023, published 2024)
# Target: T1, recombinant IL4I1 (Homo sapiens, UniProt Q96RQ9)
# T1 construct: purchased R&D Systems 5684-AO-020
# T1 sequence (Q96RQ9 22-567): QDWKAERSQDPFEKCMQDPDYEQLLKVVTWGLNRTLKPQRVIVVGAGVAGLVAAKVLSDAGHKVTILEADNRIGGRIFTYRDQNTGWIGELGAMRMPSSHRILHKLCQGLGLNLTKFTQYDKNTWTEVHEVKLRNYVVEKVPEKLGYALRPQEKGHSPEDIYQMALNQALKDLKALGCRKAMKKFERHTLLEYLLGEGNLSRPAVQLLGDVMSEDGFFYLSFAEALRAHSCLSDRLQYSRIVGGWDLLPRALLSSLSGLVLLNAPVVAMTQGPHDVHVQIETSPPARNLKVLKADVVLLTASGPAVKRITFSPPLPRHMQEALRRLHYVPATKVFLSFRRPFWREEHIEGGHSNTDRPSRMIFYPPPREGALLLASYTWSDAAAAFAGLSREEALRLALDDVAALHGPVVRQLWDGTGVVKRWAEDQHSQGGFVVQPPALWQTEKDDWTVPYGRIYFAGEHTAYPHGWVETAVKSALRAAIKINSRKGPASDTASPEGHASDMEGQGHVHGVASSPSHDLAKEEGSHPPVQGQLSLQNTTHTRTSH
# Assay: IL4I1 Enzymatic Assay (Amplex Red/HRP coupled detection of H2O2, fluorescence)
# Type: biochemical
# Conditions: 1 nM recombinant IL4I1; four-hour pre-incubation with compound; 1 mM each Phe, Tyr, Trp; ten-point titration
# Outline: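 H2O2 output was coupled to resorufin fluorescence (ex 544/em 590) via 0.05 mM Amplex Red and 1 U/mL HRP. Substrate: Phe, Tyr, Trp at 1 mM each; enzyme 1 nM, 4 h compound pre-incubation, 120 min reaction, pH 7.0 Hepes. EC50 by nonlinear four-parameter regression, 1:3 ten-point titration.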
row,Structure (SMILES),EC50
1,"Cc1ccc(-n2cc(C(=O)NCc3ccc(-c4cccc(F)c4)nn3)nn2)c(C)n1 [Example 120, 1-(2,6-dimethylpyridin-3-yl)-N-((6-(3-fluorophenyl)pyridazin-3-yl)methyl)-1H-1,2,3-triazole-4-carboxamide]",123 nM
2,"Cc1ccc(-n2cc(C(=O)NCc3ccc(-c4sccc4C)nn3)nn2)c(C)n1 [Example 122, 1-(2,6-dimethylpyridin-3-yl)-N-((6-(3-methylthiophen-2-yl)pyridazin-3-yl)methyl)-1H-1,2,3-triazole-4-carboxamide]",571 nM
3,"Cc1ccc(-n2cc(C(=O)NCc3ccc(-c4cc(F)ccc4F)nn3)nn2)c(C)n1 [Example 123, N-((6-(2,5-difluorophenyl)pyridazin-3-yl)methyl)-1-(2,6-dimethylpyridin-3-yl)-1H-1,2,3-triazole-4-carboxamide]",223 nM
4,"O=C(NCc1nnc(-c2ccccc2)s1)c1cn(CCN2CCNC2=O)nn1 [Example 125, 1-(2-(2-oxoimidazolidin-1-yl)ethyl)-N-((5-phenyl-1,3,4-thiadiazol-2-yl)methyl)-1H-1,2,3-triazole-4-carboxamide]",453 nM
5,"CC(C)(Cn1cc(C(=O)NCc2nnc(-c3ccccc3)s2)nn1)C(N)=O [Example 126, 1-(3-amino-2,2-dimethyl-3-oxo-propyl)-N-[(5-phenyl-1,3,4-thiadiazol-2-yl)methyl]triazole-4-carboxamide]",843 nM
6,"O=C(NCc1nnc(-c2ccccc2)s1)c1cn(CC2CCOC2)nn1 (stereo not drawn) [Example 129, N-((5-phenyl-1,3,4-thiadiazol-2-yl)methyl)-1-((tetrahydrofuran-3-yl)methyl)-1H-1,2,3-triazole-4-carboxamide]",124 nM
7,"C[C@@H]1C[C@H]1n1cc(C(=O)NCc2nnc(-c3ccccc3)s2)nn1 [Example 134, 1-((1R,2R)-2-methylcyclopropyl)-N-((5-phenyl-1,3,4-thiadiazol-2-yl)methyl)-1H-1,2,3-triazole-4-carboxamide]",166 nM
8,"O=C(NCc1nnc(-c2ccccc2)s1)c1cn(CC2(F)CCC2)nn1 [Example 135, 1-((1-fluorocyclobutyl)methyl)-N-((5-phenyl-1,3,4-thiadiazol-2-yl)methyl)-1H-1,2,3-triazole-4-carboxamide]",100 nM
9,"O=C(NCc1nnc(-c2ccccc2)s1)c1cn(CC2(O)CCC2)nn1 [Example 137, 1-((1-hydroxycyclobutyl)methyl)-N-((5-phenyl-1,3,4-thiadiazol-2-yl)methyl)-1H-1,2,3-triazole-4-carboxamide]",574 nM
10,"C[C@@H](C1COC1)n1cc(C(=O)NCc2nnc(-c3ccccc3)s2)nn1 [Example 148, (S)-1-(1-(oxetan-3-yl)ethyl)-N-((5-phenyl-1,3,4-thiadiazol-2-yl)methyl)-1H-1,2,3-triazole-4-carboxamide]",164 nM
11,"C[C@H](C1COC1)n1cc(C(=O)NCc2nnc(-c3ccccc3)s2)nn1 [Example 149, (R)-1-(1-(oxetan-3-yl)ethyl)-N-((5-phenyl-1,3,4-thiadiazol-2-yl)methyl)-1H-1,2,3-triazole-4-carboxamide]",132 nM
12,"O=C(NCc1nnc(-c2ccccc2)s1)c1cn(C2(C(F)F)CC2)nn1 [Example 152, 1-(1-(difluoromethyl)cyclopropyl)-N-((5-phenyl-1,3,4-thiadiazol-2-yl)methyl)-1H-1,2,3-triazole-4-carboxamide]",167 nM
13,"O=C(NCc1nnc(-c2ccccc2)s1)c1cn(C2(C(F)(F)F)CC2)nn1 [Example 153, N-((5-phenyl-1,3,4-thiadiazol-2-yl)methyl)-1-(1-(trifluoromethyl)cyclopropyl)-1H-1,2,3-triazole-4-carboxamide]",593 nM
14,"O=C(NCc1nnc(-c2ccccc2)s1)c1cn(C2(CO)COC2)nn1 [Example 158, 1-(3-(hydroxymethyl)oxetan-3-yl)-N-((5-phenyl-1,3,4-thiadiazol-2-yl)methyl)-1H-1,2,3-triazole-4-carboxamide]",335 nM
15,"O=C(NCc1nnc(-c2ccccc2)s1)c1cn(C2(CO)CC2)nn1 [Example 159, 1-(1-(hydroxymethyl)cyclopropyl)-N-((5-phenyl-1,3,4-thiadiazol-2-yl)methyl)-1H-1,2,3-triazole-4-carboxamide]",170 nM
16,"CNC(=O)C1(n2cc(C(=O)NCc3nnc(-c4ccccc4)s3)nn2)CC1 [Example 162, 1-(1-(methylcarbamoyl)cyclopropyl)-N-((5-phenyl-1,3,4-thiadiazol-2-yl)methyl)-1H-1,2,3-triazole-4-carboxamide]",120 nM
17,"O=C(NCc1nnc(-c2ccccc2)s1)c1cn(C2(CO)CCC2)nn1 [Example 163, 1-(1-(hydroxymethyl)cyclobutyl)-N-((5-phenyl-1,3,4-thiadiazol-2-yl)methyl)-1H-1,2,3-triazole-4-carboxamide]",104 nM

# The next molecules have a lower EC50 than those just listed; values first:
row,EC50,Structure (SMILES)
1,24 nM,"Cc1ccc(-n2cc(C(=O)NCc3ccc(-c4cccs4)nn3)nn2)c(C)n1 [Example 121, 1-(2,6-dimethylpyridin-3-yl)-N-((6-(thiophen-2-yl)pyridazin-3-yl)methyl)-1H-1,2,3-triazole-4-carboxamide]"
2,23 nM,"CC1(n2cc(C(=O)NCc3nnc(-c4ccccc4)s3)nn2)CCC1 [Example 124, 1-(1-methylcyclobutyl)-N-((5-phenyl-1,3,4-thiadiazol-2-yl)methyl)-1H-1,2,3-triazole-4-carboxamide]"
3,73 nM,"O=C(NCc1nnc(-c2ccccc2)s1)c1cn(CC(O)C(F)(F)F)nn1 (stereo not drawn) [Example 127, N-((5-phenyl-1,3,4-thiadiazol-2-yl)methyl)-1-(3,3,3-trifluoro-2-hydroxypropyl)-1H-1,2,3-triazole-4-carboxamide]"
4,27 nM,"C[C@H](O)Cn1cc(C(=O)NCc2nnc(-c3ccccc3)s2)nn1 [Example 128, (S)-1-(2-hydroxypropyl)-N-((5-phenyl-1,3,4-thiadiazol-2-yl)methyl)-1H-1,2,3-triazole-4-carboxamide]"
5,29 nM,"O=C(NCc1nnc(-c2ccccc2)s1)c1cn(CC2(O)CC2)nn1 [Example 136, 1-((1-hydroxycyclopropyl)methyl)-N-((5-phenyl-1,3,4-thiadiazol-2-yl)methyl)-1H-1,2,3-triazole-4-carboxamide]"
6,10 nM,"O=C(NCc1nnc(-c2ccccc2)s1)c1cn(CC2(O)COC2)nn1 [Example 140, 1-((3-hydroxyoxetan-3-yl)methyl)-N-((5-phenyl-1,3,4-thiadiazol-2-yl)methyl)-1H-1,2,3-triazole-4-carboxamide]"
7,4 nM,"O=C(NCc1nnc(-c2ccccc2)s1)c1cn(CC2(F)CC2)nn1 [Example 150, 1-((1-fluorocyclopropyl)methyl)-N-((5-phenyl-1,3,4-thiadiazol-2-yl)methyl)-1H-1,2,3-triazole-4-carboxamide]"
8,25 nM,"O=C(NCc1nnc(-c2ccccc2)s1)c1cn(C2(CF)CC2)nn1 [Example 151, 1-(1-(fluoromethyl)cyclopropyl)-N-((5-phenyl-1,3,4-thiadiazol-2-yl)methyl)-1H-1,2,3-triazole-4-carboxamide]"
9,49 nM,"O=C(NCc1nnc(-c2ccccc2)s1)c1cn(Cc2ccno2)nn1 [Example 154, 1-(isoxazol-5-ylmethyl)-N-((5-phenyl-1,3,4-thiadiazol-2-yl)methyl)-1H-1,2,3-triazole-4-carboxamide]"
10,13 nM,"CC(c1ccno1)n1cc(C(=O)NCc2nnc(-c3ccccc3)s2)nn1 (stereo not drawn) [Example 155, 1-(1-(isoxazol-5-yl)ethyl)-N-((5-phenyl-1,3,4-thiadiazol-2-yl)methyl)-1H-1,2,3-triazole-4-carboxamide]"
11,8 nM,"O=C(NCc1nnc(-c2ccccc2)s1)c1cn(Cc2cc[nH]n2)nn1 [Example 156, 1-((1H-pyrazol-3-yl)methyl)-N-((5-phenyl-1,3,4-thiadiazol-2-yl)methyl)-1H-1,2,3-triazole-4-carboxamide]"
12,11 nM,"O=C(NCc1nnc(-c2ccccc2)s1)c1cn(CC2COC2)nn1 [Example 157, 1-(oxetan-3-ylmethyl)-N-((5-phenyl-1,3,4-thiadiazol-2-yl)methyl)-1H-1,2,3-triazole-4-carboxamide]"
13,36 nM,"N#CC1(n2cc(C(=O)NCc3nnc(-c4ccccc4)s3)nn2)CC1 [Example 160, 1-(1-cyanocyclopropyl)-N-((5-phenyl-1,3,4-thiadiazol-2-yl)methyl)-1H-1,2,3-triazole-4-carboxamide]"
14,22 nM,"CC1(Cn2cc(C(=O)NCc3nnc(-c4ccccc4)s3)nn2)COC1 [Example 161, 1-((3-methyloxetan-3-yl)methyl)-N-((5-phenyl-1,3,4-thiadiazol-2-yl)methyl)-1H-1,2,3-triazole-4-carboxamide]"
15,17 nM,"O=C(NCc1nnc(-c2ccccc2)s1)c1cn(Cc2cn[nH]c2)nn1 [Example 164, 1-((1H-pyrazol-4-yl)methyl)-N-((5-phenyl-1,3,4-thiadiazol-2-yl)methyl)-1H-1,2,3-triazole-4-carboxamide]"
16,7 nM,"O=C(NCc1nnc(-c2ccccc2)s1)c1cn(C[C@@H](F)CO)nn1 [Example 165, (R)-1-(2-fluoro-3-hydroxypropyl)-N-((5-phenyl-1,3,4-thiadiazol-2-yl)methyl)-1H-1,2,3-triazole-4-carboxamide]"
